Three molecules from patent US20210369677A1, “SMALL MOLECULE ACTIVATORS OF POLYCYSTIN-2 (PKD2) AND USES THEREOF” (Northwestern University, priority 2020, published 2021) can be followed below.

In the test the target is T1, polycystin-2 (Homo sapiens, UniProt Q13563).
T1 construct: expressed in transfected cells
T1 sequence (Q13563 1-968): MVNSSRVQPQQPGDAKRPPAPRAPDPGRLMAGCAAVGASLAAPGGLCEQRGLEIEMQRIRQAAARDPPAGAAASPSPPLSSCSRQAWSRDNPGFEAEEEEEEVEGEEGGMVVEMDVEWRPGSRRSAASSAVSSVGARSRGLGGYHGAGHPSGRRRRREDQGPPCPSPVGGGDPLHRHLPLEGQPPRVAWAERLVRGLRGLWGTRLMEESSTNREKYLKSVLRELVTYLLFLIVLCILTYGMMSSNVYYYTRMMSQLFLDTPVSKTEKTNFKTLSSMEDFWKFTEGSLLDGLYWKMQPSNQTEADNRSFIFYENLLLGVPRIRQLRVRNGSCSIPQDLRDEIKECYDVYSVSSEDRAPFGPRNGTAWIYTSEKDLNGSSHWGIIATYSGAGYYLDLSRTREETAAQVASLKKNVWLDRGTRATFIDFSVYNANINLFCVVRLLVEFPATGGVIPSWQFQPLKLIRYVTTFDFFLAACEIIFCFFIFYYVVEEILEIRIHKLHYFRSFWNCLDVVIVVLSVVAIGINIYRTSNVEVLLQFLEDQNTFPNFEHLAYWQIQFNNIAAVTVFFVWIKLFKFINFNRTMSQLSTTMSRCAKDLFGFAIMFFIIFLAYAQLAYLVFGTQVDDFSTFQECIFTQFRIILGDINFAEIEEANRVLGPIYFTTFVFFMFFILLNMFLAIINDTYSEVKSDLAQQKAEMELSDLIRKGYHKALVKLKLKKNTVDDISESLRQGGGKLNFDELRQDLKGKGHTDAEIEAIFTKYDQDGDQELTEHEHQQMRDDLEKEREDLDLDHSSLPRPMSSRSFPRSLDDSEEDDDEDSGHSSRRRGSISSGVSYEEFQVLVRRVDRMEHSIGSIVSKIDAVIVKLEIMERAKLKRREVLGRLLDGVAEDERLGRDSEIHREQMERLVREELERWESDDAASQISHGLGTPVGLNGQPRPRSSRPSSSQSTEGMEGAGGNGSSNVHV
It counts as cell-based. The following applies: for Effect of external disulfide reducing agents on wild type polycystin-2 current: whole cilia configuration. An excerpt: Generation of HEK PKD2^Null cells line and the stable expression PKD2 variants. To generate the HEK PKD2^Null cell lines, we used a CRISPR/Cas9 gene editing kit available from Addgene (kit 1000000055). HEK 293 cells were electro-transfected with sgRNAs (caccg[…] and aaac[…]c) with the All-in-one Cas9 plasmid. […] Cells generated from single cell clones were selected after 4 weeks of expansion in a 96-wells plate. […] To generate the WT and variant PKD2 GFP or mCherry C-terminally tagged variant cell lines, the hPKD gene was subcloned into lentiviral pLVX-mcherry-N1 (Clontech) or pLVX-GFP-N1 (Clontech) vector using the Gibson assembly method. A linker encoding for six glycine residues was added between the PKD2 gene and the C-terminal tags, and missense variants were generated using standard, site-directed mutagenesis. The third-generation lentiviral packaging plasmids used for stable expression contained: pMDLg/pRRE (Addgene), […] pRSV-Rev (Addgene), and envelope expressing plasmid pMD2.G (Addgene). LentiX-293T cells (Takara) were transfected with polyethylineimine (Polysciences) at a 4:1:1:1 ratio of the transgene and viral packaging constructs. Supernatants were collected 48 and 72 hours post transfection and filtered through a 0.45 μm syringe filter. Lentiviral supernatant was concentrated 100 times using 1 volume of PEG-it (System Biosciences) virus precipitation solution and 4 volume of lentivirus-containing supernatant. The PEG-it and supernatant mixture were kept at 4 degrees for 24 hours and centrifuged at 1500 rpm for 30 minutes. The pellet containing lentivirus was resuspended with 1/100th volume of PBS of the original supernatant volume. HEK cells were infected with the lentivirus supernatant; PKD2-GFP or PKD2-mCherry expression was selected using culture media containing puromycin (2 μg/ml) for 30 to 90 days. Cells were then fluorescence-activated cell sorted (BD FacsMelody) at 5000 to 10,000 counts per minute to enrich for the transgene expression. Stable cell lines were cultured in Dulbecco's modified essential medium (DMEM) supplemented with 10% fetal bovine serum (FBS) and 100 units/ml penicillin, 100 units/ml streptomycin and 1 μg/ml puromycin selection antibiotic.
Electrophysiology. Ciliary ion currents were recorded using borosilicate glass electrodes polished to resistances of 14-22 MΩ using the cilium patch method previously described^32. Whole cell electrodes used to measure poly cystin-2L1 currents were fire polished to 1.5-4 MΩ resistances. Unless otherwise stated, whole cilia ionic currents were recorded in symmetrical [Na^+]. The pipette standard internal solution contained (in mM): 90 NaMES, 10 NaCl, 10 HEPES, 10 Na4-BAPTA (Glycine, N, N′-[1,2-ethanediylbis(oxy-2,1-phenylene)]bis[N-(carboxymethyl)]-,tetrasodium); pH was adjusted to 7.3 using NaOH. Standard bath solution contained 140 NaCl, 10 HEPES, 1.8 CaCl2); pH 7.4. All solutions were osmotically balanced to 295 (±6) mOsm with mannitol. Extracellular solutions containing TCEP and GSH were used within six hours of formulation. Data were collected using an Axopatch 200B patch clamp amplifier, Digidata 1440A, and pClamp 10 software. Whole-cilium and excised patch currents were digitized at 25 kHz and low-pass filtered at 10 kHz. In the whole cilium configuration, the holding potential was −60 mV and then depolarized using a 400 ms voltage ramp from −100 mV to 100 mV. The whole cell recordings of polycystin-2L1 currents were either activated by the same ramp protocol or by 100 ms depolarizations to 100 mV from a −100 mV holding potential.

Regarding `O=C(O)CCP(CCC(=O)O)CCC(=O)O` [TCEP, tris-2-carboxyethyl phosphine], the “Effect of external disulfide reducing agents on wild type polycystin-2 current” value is listed as “near instantaneous reduction”. `[Gd]` [gadolinium]: the “Block of ciliary WT polycystin-2 currents by trivalent ions” value (10 μM, voltage ramps) is on record as “blocked”. As to `N[C@@H](CCC(=O)N[C@@H](CS)C(=O)NCC(=O)O)C(=O)O` [GSH, reduced glutathione], the “Effect of external disulfide reducing agents on wild type polycystin-2 current” value is “near instantaneous reduction”.
